Experimental data from patent US8957075B2, “O-GlcNAc transferase inhibitors and uses thereof” (priority 2009, dated 2015).

Tests used:
sOGT [1] = molecular target: T1, sOGT (Homo sapiens (Human), UniProt O15294); test: Fluorescence polarization screen of quinolinesulfonamide library for OGT inhibition (displacement of fluorescein-linked UDP-GlcNAc analog); type: binding; settings: rough Ki values from fluorescence polarization results and Kd of the probe; 1-2 μM sOGT, 50 nM probe
Method: Compound libraries of the 4 concentrations in duplicated were then transferred to the assay plates using a 100 nL pin array, resulting in a final compound concentration of 25 μg/mL or ˜70 μM at the highest of the four concentrations, assuming an average compound MW of 350. Using a Perkin Elmer Envision® microplate reader, the sample was excited at 480 nm in the vertical plane, and simultaneous emission intensity (535 nm) of the vertical and horizontal polarization planes was measured. The polarization was calculated using the following equation: eq4: mP=1000*(V−G*H)/(V+G*H) where: mP=millipolarization units, V=intensity of vertically polarized emission (RFU), H=intensity of horizontally polarized emission (RFU), and G=gain.

sOGT [2] = molecular target: T1, sOGT; test: Secondary assay: transfer of UDP-14C-GlcNAc to casein kinase II derived peptide by sOGT; type: biochemical; settings: 500 μM peptide, 6.25 μM UDP-14C-GlcNAc, ~20-40 nM sOGT; read-out: IC50 (OGT inhibition)
Method: Hits were examined in a secondary assay involving the transfer of UDP-^14C-GlcNAc to a peptide derived from casein kinase II, which contains a known OGT glycosylation site, as described by Hart and co-workers (see manuscript, reference 4). Three lysines and a tyrosine were added to the N-terminus of this peptide substrate ([sequence]) to allow capture on phosphocellulose discs and UV detection, respectively. […] Reactions were spotted on Whatman P81 phosphocellulose discs, washed three times for five minutes in 1% phosphoric acid, and counted by liquid scintillation counting. IC50s curves were determined from the counts of the reactions and IC50s were determined.

HEK293 cells = test: Glucosamine-induced cellular-wide O-GlcNAcylation changes in HEK cells (western blot, CTD110.6 antibody); type: cell-based; settings: 12.5 μM compound, 4 mM glucosamine, 16 hours
Method: The efficacy of the inhibitor in cell culture was evaluated by adding compound N08 to HEK293 cells.HEK293 cells were grown in 6 well plates using low glucose (5 mM) DMEM with 10% FBS as the media. […] After mixing the compounds the media was removed from the cultured cells and the inhibitor-media solutions was added to the cells. After cells were incubated with the inhibitors for 16 hours (overnight), the cells were rinsed with PBS, removed using cell scrapers, transferred to 1.5 ml microcentrifuge tubes, pelleted by centrifugation, and lysed by resuspending in 100 μl RIPA buffer with protease and phosphatase inhibitor cocktails (SIGMA). After incubating on ice the debris were pelleted down, and the supernatant was collected as whole cell lysate. Total protein concentration of each sample was determined by Bradford Assay in order to normalize levels of protein loaded onto a gel. Then 2×SDS-PAGE sample buffer was added to each sample, they were boiled for 10 minutes, and loaded onto a denaturing polyacrylamide gel (4-20% gradient), transferred to nitrocellulose membrane, blocked with 1% BSA for 1 hour, and probed with the monoclonal O-GlcNAc antibody, CTD110.6 (Covance), incubated at a 1:5000 dilution in 1% BSA overnight at 4° C., followed by addition of anti-mouse HRP secondary antibody. Pierce SuperSignal West Pico Chemiluminescent substrate was added to perform the western blot.

T1 sequence (O15294 382-1046, species assumed): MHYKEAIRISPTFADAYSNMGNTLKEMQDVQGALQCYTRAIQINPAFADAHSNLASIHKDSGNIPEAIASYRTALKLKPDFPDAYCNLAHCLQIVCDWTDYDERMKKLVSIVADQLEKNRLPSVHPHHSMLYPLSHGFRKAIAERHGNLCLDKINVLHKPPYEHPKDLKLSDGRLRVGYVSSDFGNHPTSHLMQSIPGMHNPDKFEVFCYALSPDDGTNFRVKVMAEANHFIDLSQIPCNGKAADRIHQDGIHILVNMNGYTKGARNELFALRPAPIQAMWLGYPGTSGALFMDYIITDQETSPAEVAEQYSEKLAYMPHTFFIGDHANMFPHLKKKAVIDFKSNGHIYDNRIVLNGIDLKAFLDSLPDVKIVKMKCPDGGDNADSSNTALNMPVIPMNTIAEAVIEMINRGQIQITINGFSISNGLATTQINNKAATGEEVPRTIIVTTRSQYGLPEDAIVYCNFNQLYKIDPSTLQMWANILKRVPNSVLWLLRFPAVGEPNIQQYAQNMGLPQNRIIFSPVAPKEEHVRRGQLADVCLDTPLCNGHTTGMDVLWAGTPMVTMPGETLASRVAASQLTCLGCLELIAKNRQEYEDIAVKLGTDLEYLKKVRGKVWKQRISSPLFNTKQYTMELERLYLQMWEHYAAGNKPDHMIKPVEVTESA

Row | Structure (SMILES) | Ki (sOGT [1]) [µM] | also measured
1 | COc1cc2c(cc1OC)C(C)N(S(=O)(=O)c1ccc3[nH]c(=O)ccc3c1)CC2 (stereo not shown) | 50 | 
2 | Cc1ccc(NC(=O)C(NS(=O)(=O)c2ccc3c(c2)CCC(=O)N3)c2ccccc2)c(Br)c1 (stereo not shown) | 52 | 
3 | O=C(C(NS(=O)(=O)c1ccc2[nH]c(=O)ccc2c1)c1ccccc1)N(Cc1ccco1)Cc1cccs1 (stereo not shown) [Example 3, N-(furan-2-ylmethyl)-2-(2-oxo-1,2-dihydroquinoline-6-sulfonamido)-2-phenyl-N-(thiophen-2-ylmethyl)acetamide] |  | IC50 (sOGT [2]): 0.39 µM; Effect on glucosamine-induced cellular-wide O-GlcNAcylation (HEK293 cells): reduces glucosamine-induced cellular-wide O-GlcNAcylation changes to normal levels
4 | O=C1CCc2cc(S(=O)(=O)NC(C(=O)NCc3ccc(Cl)cc3)c3ccccc3)ccc2N1 (stereo not shown) | 6.6 | 
5 | O=C1CCc2cc(S(=O)(=O)NC(C(=O)N3CCN(C(=O)c4ccco4)CC3)c3ccccc3)ccc2N1 (stereo not shown) | 11 | 
6 | Cc1cccc(C)c1NC(=O)C(NS(=O)(=O)c1ccc2c(c1)CCC(=O)N2)c1ccccc1 (stereo not shown) | 37 | 
7 | CN(Cc1ccco1)C(=O)C(Cc1ccccc1)NS(=O)(=O)c1ccc2c(c1)CCC(=O)N2 (stereo not shown) | 13 | 
8 | Cc1ccc(N2CCN(C(=O)C(NS(=O)(=O)c3ccc4c(c3)CCC(=O)N4)c3ccccc3)CC2)cc1 (stereo not shown) | 9 | 
9 | COc1ccc(NS(=O)(=O)c2ccc3[nH]c(=O)ccc3c2)cc1OC | 7.2 | 
10 | O=C1CCc2cc(S(=O)(=O)NC(C(=O)N3CCN(C4CCCCC4)CC3)c3ccccc3)ccc2N1 (stereo not shown) | 20 | 
11 | COc1cccc(N2CCN(C(=O)C(NS(=O)(=O)c3ccc4c(c3)CCC(=O)N4)c3ccccc3)CC2)c1 (stereo not shown) | 6.3 | 
12 | O=C(C(NS(=O)(=O)c1ccc2[nH]c(=O)ccc2c1)c1ccccc1)N(Cc1ccco1)Cc1cccs1 (stereo not shown) [drawing 100] | 0.4 | 
13 | CC(c1cccs1)N(Cc1ccco1)C(=O)C(NS(=O)(=O)c1ccc2c(c1)CCC(=O)N2)c1ccccc1 (stereo not shown) | 1.6 | 
14 | CN(CC(=O)Nc1nc2ccc(Cl)cc2s1)S(=O)(=O)c1ccc2[nH]c(=O)ccc2c1 | 60 | 
15 | CC(C)N(Cc1ccccc1)C(=O)C(NS(=O)(=O)c1ccc2c(c1)CCC(=O)N2)c1ccccc1 (stereo not shown) [drawing 86] | 5.7 | 
16 | O=C1CCc2cc(S(=O)(=O)NC(C(=O)N3CCN(c4ccccn4)CC3)c3ccccc3)ccc2N1 (stereo not shown) | 4.2 | 
17 | O=C1CCc2cc(S(=O)(=O)NC(C(=O)N(Cc3ccco3)Cc3cccs3)c3ccccc3)ccc2N1 (stereo not shown) | 4 | 
18 | Cc1cccc(N(C)C(=O)C(NS(=O)(=O)c2ccc3c(c2)CCC(=O)N3)c2ccccc2)c1 (stereo not shown) | 7.4 | 
19 | CCc1cccc(C)c1NC(=O)C(NS(=O)(=O)c1ccc2c(c1)CCC(=O)N2)c1ccccc1 (stereo not shown) | 97 | 
20 | Cc1ccc(N2CCN(C(=O)C(NS(=O)(=O)c3ccc4c(c3)CCC(=O)N4)c3ccccc3)CC2C)cc1 (stereo not shown) | 3.2 | 
21 | O=C1CCc2cc(S(=O)(=O)NC(C(=O)N3CCC(Cc4ccccc4)CC3)c3ccccc3)ccc2N1 (stereo not shown) | 2 | 
22 | CCN(CC)C(=O)C(NS(=O)(=O)c1ccc2c(c1)CCC(=O)N2)c1ccccc1 (stereo not shown) | 21 | 
23 | O=C1CCc2cc(S(=O)(=O)NC(C(=O)NCc3ccccc3)c3ccccc3)ccc2N1 (stereo not shown) | 125 | 
24 | Cc1cc(C)c(NC(=O)C(NS(=O)(=O)c2ccc3c(c2)CCC(=O)N3)c2ccccc2)c(C)c1 (stereo not shown) | 5.6 | 
25 | CC(C)N(Cc1ccccc1)C(=O)C(NS(=O)(=O)c1ccc2c(c1)CCC(=O)N2)c1ccccc1 (stereo not shown) [drawing 98] | 7 | 
26 | CCOc1ccccc1NS(=O)(=O)c1ccc2[nH]c(=O)ccc2c1 | 4.7 | 
27 | O=C(O)CC(NS(=O)(=O)c1ccc2c(c1)CCC(=O)N2)c1cccc(Cl)c1 (stereo not shown) | 15 | 
